Test results reported in patent US20120052126A1, “Nanoemulsions Containing Antioxidants And Other Health-Promoting Compounds” (priority 2010, published 2012).

Test system: MDA production (lipid peroxidation) in brain tissue
Experiment: Malonaldehyde (MDA) production in mouse brain after oral administration and sleep fragmentation
Type: in vivo, mice
Details: gavage once a day for 120 days, then 15 days sleep fragmentation, brain cortex, MDA expressed as fold increase
From the text: Male adult mice were obtained having either the human APOE ε4 allele (targeted replacement, n=42) or wild type allele (n=42). […] Administration was by gavage once a day for 120 days. After this period, the subject mice underwent sleep fragmentation (SF) for 15 days. The SF device exposes freely behaving mice in a standard laboratory cage to intermittent tactile stimulation utilizing a motorized mechanical device. Tactile stimulation is produced by a horizontal bar powered by an electrical motor system, which sweeps just above the cage floor from side to side at intermittent functioning mode (2 min). During the […] motion, mice may need to step over the […] passes. Chronic SF may induce inflammatory responses and oxidative stress. After 15 days of SF, the mice were sacrificed and the brain dissected out for MDA and 8-OHdG assays, which are produced by the brain in response to oxidative stress and inflammatory events. MDA production is an indicator of lipid peroxidation. After the mice were sacrificed, an LPO-586 kit (OxisResearch, Portland Oreg.) was used according to the manufacturer's instructions to measure MDA levels in the brain tissue. The animals were anesthetized with CO2 inhalation then decapitated, and the cortex were dissected, snap frozen in liquid nitrogen, and stored at -80° C. until assay the following day. Neuronal tissues were homogenized in 20 mM phosphate buffer (pH 7.4) containing 0.5 mM butylated hydroxytoluene to prevent sample oxidation. […] The samples were then centrifuged and clear supernatants measured at 586 nm. MDA production was then calculated per the standard curve according to the manufacturer's instructions. The relative levels of lipid peroxidation were expressed in fold increase in MDA production.

SMILES	MDA production, Diff of Means (MDA-APOE ε4 allele mice (human APOE ε4 targeted replacement))	MDA production, Diff of Means (MDA-Wild Type mice)
O=C(O)CCCCC1CCSS1 (stereo not drawn) [lipoic acid (SW), lipoic acid]	0.663	0.46
Cc1c(C)c2c(c(C)c1O)CC[C@@](C)(CCC[C@H](C)CCC[C@H](C)CCCC(C)C)O2 [vitamin E (SW), vitamin E]	–	0.489
